Experimental data: PubChem BioAssay (NCI)
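48-hour exposure; five concentrations; linearly interpolated endpoints. At the GI50, growth is halved. At the TGI there is no net growth.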

Assays:
Assay in all cases: DTP human tumour cell line panel, 48 h
SNB-75 CNS = test system: SNB-75 CNS
PC-3 prostate = test system: PC-3 prostate
U251 CNS = test system: U251 CNS
NCI/ADR-RES ovarian = test system: NCI/ADR-RES ovarian
UO-31 renal = test system: UO-31 renal
SR leukemia = test system: SR leukemia
EKVX NSCLC = test system: EKVX NSCLC
UACC-257 melanoma = test system: UACC-257 melanoma
IGROV1 ovarian = test system: IGROV1 ovarian
SF-295 CNS = test system: SF-295 CNS

Structure (SMILES)	GI50 (SNB-75 CNS)	TGI (SNB-75 CNS)	GI50 (PC-3 prostate)	TGI (PC-3 prostate)	GI50 (U251 CNS)	TGI (U251 CNS)	GI50 (NCI/ADR-RES ovarian)	TGI (NCI/ADR-RES ovarian)	GI50 (UO-31 renal)	TGI (UO-31 renal)	GI50 (SR leukemia)	TGI (SR leukemia)	GI50 (EKVX NSCLC)	TGI (EKVX NSCLC)	GI50 (UACC-257 melanoma)	TGI (UACC-257 melanoma)	GI50 (IGROV1 ovarian)	TGI (IGROV1 ovarian)	GI50 (SF-295 CNS)	TGI (SF-295 CNS)
C=C1C(=O)O[C@H]2[C@H]1CC/C(COC(=O)NCCc1c[nH]c3ccc(OC)cc13)=C\CC[C@@]1(C)O[C@@H]21	10 µM	21.7 µM	1.99 µM	4.6 µM	4.3 µM	15.9 µM	7.57 µM	29.2 µM	1.46 µM	2.77 µM	1.02 µM	9.33 µM	1.94 µM	5.45 µM	1.52 µM	3.3 µM	2.08 µM	4.7 µM	10.3 µM	22.2 µM
CC(=O)O/N=C1/C(c2c(O)[nH]c3cc(Br)ccc23)=Nc2ccccc21	0.811 µM	5.11 µM	1.33 µM	3.51 µM	1.72 µM	5.63 µM	1.73 µM	4.59 µM	0.653 µM	2.4 µM	1.63 µM	5.9 µM	1.37 µM	2.95 µM	2.26 µM	4.38 µM	1.27 µM	3.33 µM	2 µM	5.47 µM
